{"source": "patent US6982258B2", "about": "“Low-calcemic oxime analogs of 1α,25-dihydroxy vitamin D3” (Cytochroma Inc., priority 2001, dated 2006)", "data": [{"test_system": "not listed separately", "experiment": "Calcium excretion (hypercalcemia assay, rat urine)", "format": "in vivo", "settings": "administered orally daily for one week", "experimental": "As a measure of their safety in animals, compound of Formula I(a) was administered orally to rats daily for 1 week at a similar dose (0.5 microgram/Kg body weight) to calcitriol, using a procedure described previously (Posner G. H. et al. J. Med. Chem. 1999, 42, 3425-3435). A graph showing the effect of compound I(a) (indicated as BH 1625(NOH)) on calcium levels in rat urine in comparison to calcitriol (1α,25-Dihydroxy vitamin D3) is shown in FIG. 6.", "values": [{"smiles": "C=C1/C(=C\\C=C2/CCC[C@]3(C)[C@@H]([C@H](C)CCCC(C)(C)O)CC[C@@H]23)C[C@@H](O)C[C@@H]1O", "note": "[calcitriol, 1α,25-Dihydroxy vitamin D3]", "levels of calcium in the urine": "significant increase in calcium levels in the urine"}]}, {"molecular_target": "T1, CYP24 (Homo sapiens, UniProt Q07973)", "T1 construct": "When the HPK1A-ras cells were 80-90% confluent, add 1 μL 10^−5 M 1,25(OH)2D3; endogenous in cells; host or cells: HPK1A-ras cells induced with 10^-8 M 1,25(OH)2D3", "T1 sequence (Q07973 36-514)": "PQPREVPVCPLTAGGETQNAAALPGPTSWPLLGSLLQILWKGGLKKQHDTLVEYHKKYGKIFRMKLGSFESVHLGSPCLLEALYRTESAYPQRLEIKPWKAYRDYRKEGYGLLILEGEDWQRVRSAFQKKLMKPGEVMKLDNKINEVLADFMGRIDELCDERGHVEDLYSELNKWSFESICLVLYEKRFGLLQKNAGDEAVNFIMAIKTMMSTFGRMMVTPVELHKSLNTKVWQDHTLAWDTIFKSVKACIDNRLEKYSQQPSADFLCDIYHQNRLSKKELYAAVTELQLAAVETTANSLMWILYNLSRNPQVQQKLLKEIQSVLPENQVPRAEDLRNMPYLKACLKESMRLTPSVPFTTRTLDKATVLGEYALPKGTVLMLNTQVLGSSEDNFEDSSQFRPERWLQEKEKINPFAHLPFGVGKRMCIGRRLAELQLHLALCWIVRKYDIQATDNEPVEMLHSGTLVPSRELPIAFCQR", "experiment": "CYP24 enzyme assay (induced HPK1A-ras cells)", "format": "cell-based", "settings": "ketoconazole as control standard", "experimental": "CYP24 Enzyme Assay (Induced […] Cells)\n• 1,25(OH)2D3 10^−5 M • [^3H]-1,25(OH)2D3 25,000 CPM/μL • HPK1A-ras cells • 48-well plate • Methanol • Dichlorimethane • Saturated KCI:KCI 30 g, H2O400 ml (ii) Procedure: • 1. Induction of HPK1A-ras cells (The day before assay) • When the HPK1A-ras cells were 80-90% confluent, add 1 μL 10^−5 M 1,25(OH)2D3 to 1 mL medium in the plate (final concentration is 10^−8 M). • 2. Preparation of cell suspension • After 18 to 20 hours induction, removed the medium and washed the cell twice with PBS. Then tripsinized the cells from plate, centrifuge (2,000 rpm, 5 min) and suspended cells pellet in DMEM medium+1% BSA. • Counted the cells and adjust cells density to 250,000/150 μL, add 150 μL cell suspension to each well in 48-well plate. (including 3 wells as no cell control, and 3 well cells without drug or inhibitor as control). • 3. Added 25 μL ketoconazole (final concentration 10^−5 M, 10^−6 M, 10^−7 M, 10^−8 M) or drugs into each designated well. Keep the plate in 37° C. for 10 min. • 4. Preparation of substrate • Took certain amount of DMEM+1% BSA medium (25*Well number+200)μL to a tube, added certain amount of ^3H-1,25(OH)2D3 (well number+2) μL and certain amount of 100 mM DPPD (well number/5)μL and mixed them by vortex. • 5. Incubation • Added 25 μL substrate to each well, incubated the plate at 37° C. for 3 hour. • Added 25 μL substrate to counting plate (2 well) as a total count. • 6. Lipid extraction and counting • Added 500 μL methanol to each well to stop the reaction, transfered them to tube • Added 250 μL dichloromethane and vortex. • Added 250 μL dichloromethane and 250 μL saturated KCI, and vortexed. • Centrifuged at 4000 rpm for 5 min. • Transfered 100 μL of aqueous phase (upper phase) to counting plastic counting plate. Added 600 μL of scintillation fluid to each well. Counted the plate in scintillation counter. • 7. Calculation enzyme activity • CPM of cell control after subtraction of CPM of NCC is as 100% enzyme activity. • Enzyme activity=(CPM in test compounds well−CPM in NCC well)/(CPM in Cell control−CPM in NCC well)* 100% • Dilution of Ketoconazole • Stock 10^−2 M\n• Dilution of test compounds • Stock 10^−3 M", "values": [{"smiles": "C=C1/C(=C\\C=C2/CCC[C@]3(C)C([C@H](C)CCC/C(=N\\Oc4ccccc4)C(C)(C)C)=CC[C@@H]23)C[C@@H](O)C[C@@H]1O", "note": "[I(i)]", "inhibition of CYP24 activity compared to ketoconazole": "significantly greater inhibition of CYP24 than ketoconazole"}, {"smiles": "C=C1/C(=C\\C=C2/CCC[C@]3(C)C([C@H](C)CCC/C(=N\\OC)C(C)(C)C)=CC[C@@H]23)C[C@@H](O)C[C@@H]1O", "note": "[I(c)]", "inhibition of CYP24 activity compared to ketoconazole": "significantly greater inhibition of CYP24 than ketoconazole"}, {"smiles": "C=C1/C(=C\\C=C2/CCC[C@]3(C)C([C@H](C)CCC/C(=N\\O)C(C)(C)C)=CC[C@@H]23)C[C@@H](O)C[C@@H]1O", "note": "[I(a)]", "inhibition of CYP24 activity compared to ketoconazole": "significantly greater inhibition of CYP24 than ketoconazole"}, {"smiles": "C=C1/C(=C\\C=C2/CCC[C@]3(C)C([C@H](C)CCC/C(=N\\OCC)C(C)(C)C)=CC[C@@H]23)C[C@@H](O)C[C@@H]1O", "note": "[I(e)]", "inhibition of CYP24 activity compared to ketoconazole": "significantly greater inhibition of CYP24 than ketoconazole"}, {"smiles": "C=CCO/N=C(\\CCC[C@@H](C)C1=CC[C@H]2/C(=C/C=C3/C[C@@H](O)C[C@H](O)C3=C)CCC[C@]12C)C(C)(C)C", "note": "[I(g)]", "inhibition of CYP24 activity compared to ketoconazole": "significantly greater inhibition of CYP24 than ketoconazole"}]}]}
